# Several values for one entry are separate records, joined by “and”; a condition that tells them apart may be missing. Equal entries are not always repeated. Where two headings read alike, the source gives them in different places.
# Columns and labels:
# [1] = tested on: Saccharomyces cerevisiae wild-type strain; assay type: cell-based
# Procedure: (§1) FIG. 9: Growth of the Saccharomyces cerevisiae wild-type strain in DPM-HIS/-TRP 5 mM KCl medium in 96-well ELISA plates in the presence of 0.5 mM CsCl. The various inhibitors were employed at a final concentration of in each case 30 μM. To measure the cell density, a commercially available LacZ reporter system pYX232 by Ingenius (cat. No. MBV-032-10) was transformed into the yeast strains to be studied. Expression of the LacZ reporter gene was under the control of the constitutive Saccharomyces cerevisiae promotor TPI for the triose phosphate isomerase gene. The LacZ enzyme activity was measured via detecting the luminescence after 24 hours' growth (density of the starter culture: 0.01 OD620) using a commercially available assay system by TROPIX.
# The values correspond to the average of in each case 4 measurements±SD. The two different assays were carried out independently of each other on two different days.
# (§2) All substances, dissolved in DMSO, were employed in a final concentration of 30 μM. As a control, cells were measured with the same final concentration of 0.5% DMSO without substance, without DMSO addition or without substance.
# [2] = biological target: human potassium channel HERG1 (Homo sapiens, UniProt Q12809)
# human potassium channel HERG1, sequence (Q12809 whole entry): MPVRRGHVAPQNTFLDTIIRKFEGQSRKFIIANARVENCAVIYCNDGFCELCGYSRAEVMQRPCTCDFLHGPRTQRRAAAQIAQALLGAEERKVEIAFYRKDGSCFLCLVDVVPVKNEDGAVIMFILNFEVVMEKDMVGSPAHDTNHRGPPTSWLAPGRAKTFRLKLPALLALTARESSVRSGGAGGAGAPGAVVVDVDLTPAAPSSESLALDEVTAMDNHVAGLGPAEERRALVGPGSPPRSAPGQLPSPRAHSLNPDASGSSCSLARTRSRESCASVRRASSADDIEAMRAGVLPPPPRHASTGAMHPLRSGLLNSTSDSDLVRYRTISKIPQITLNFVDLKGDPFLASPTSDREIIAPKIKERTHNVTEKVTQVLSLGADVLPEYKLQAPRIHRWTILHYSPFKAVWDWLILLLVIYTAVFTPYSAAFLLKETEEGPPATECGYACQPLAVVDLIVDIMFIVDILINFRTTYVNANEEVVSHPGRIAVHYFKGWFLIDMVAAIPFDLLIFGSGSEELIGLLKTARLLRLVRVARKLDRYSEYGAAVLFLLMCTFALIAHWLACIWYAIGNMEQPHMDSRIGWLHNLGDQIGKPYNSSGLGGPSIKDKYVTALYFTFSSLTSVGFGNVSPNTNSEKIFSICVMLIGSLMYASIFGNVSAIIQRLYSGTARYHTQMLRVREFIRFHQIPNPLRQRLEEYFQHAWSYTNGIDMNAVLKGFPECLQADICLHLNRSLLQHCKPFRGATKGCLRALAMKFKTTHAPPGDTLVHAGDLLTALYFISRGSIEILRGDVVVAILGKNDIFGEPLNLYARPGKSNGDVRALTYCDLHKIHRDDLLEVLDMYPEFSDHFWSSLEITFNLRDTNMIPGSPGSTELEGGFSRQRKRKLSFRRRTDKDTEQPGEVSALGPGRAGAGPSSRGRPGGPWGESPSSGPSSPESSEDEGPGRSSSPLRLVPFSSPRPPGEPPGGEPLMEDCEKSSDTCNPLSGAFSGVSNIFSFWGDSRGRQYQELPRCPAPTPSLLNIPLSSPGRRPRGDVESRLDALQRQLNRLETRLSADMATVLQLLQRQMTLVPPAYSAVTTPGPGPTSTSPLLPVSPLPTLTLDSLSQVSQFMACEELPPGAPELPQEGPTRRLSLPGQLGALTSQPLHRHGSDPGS
# Procedure: FIG. 7: Expression of the human potassium channel HERG1 in the triple mutant Δtrk1Δtrk2Δtok1 in DPM-HIS/-TRP 5 mM KCl medium in 96-well ELISA plates in the presence of 0.5 mM CsCl as activator.
# as §1, with “The” for “FIG. 9: Growth of the Saccharomyces cerevisiae wild-type strain in DPM-HIS/-TRP 5 mM KCl medium in 96-well ELISA plates in the presence of 0.5 mM CsCl. The”, “TROPIX. The values correspond to the average of in each case 4 measurements±SD. The two different assays were carried out independently of each other on two different days.” for “TROPIX.”
# FIG. 8: Expression of the human potassium channel HERG1 in the triple mutant Δtrk1Δtrk2Δtok1 in DPM-HIS 5 mM KCl medium in 96-well ELISA plates in the presence of 0.5 mM CsCl as activator.
# The various inhibitors were employed at a final concentration of in each case 30 μM. The cell density was measured after 38 hours' growth (density of the starter culture: 0.03 OD620) via determination of the optical density at a wavelength of 620 nm. The values corresponded to the average of in each case 4 measurements±SD.
# All growth assays in the triple mutant Δtrk1Δtrk2Δtok1 were carried out in growth medium DPM (defined potassium medium) at the pH and the potassium concentration stated in each case.
# as §2
# [3] = tested on: Saccharomyces cerevisiae wild-type strain; experiment: Growth of wild-type strain in DPM medium with 5 mM or 80 mM KCl, OD 620 nm; assay type: cell-based; settings: 30 μM; for toxic effect on yeast cells (Saccharomyces cerevisiae): growth medium containing 80 mM KCl; for growth OD 620 nm, 5 mM KCl, measurement 1 / growth OD 620 nm, 5 mM KCl, measurement 2 / growth OD 620 nm, 5 mM KCl, measurement 3 / growth OD 620 nm, 5 mM KCl, measurement 4 / 5 mM KCl (average growth, OD 620 nm) / growth OD 620 nm, 80 mM KCl, measurement 1 / growth OD 620 nm, 80 mM KCl, measurement 2 / growth OD 620 nm, 80 mM KCl, measurement 3 / growth OD 620 nm, 80 mM KCl, measurement 4 / 80 mM KCl (average growth, OD 620 nm): wild-type cells, DPM, 24 hours growth, starting culture 0.01 OD; for 5 mM KCl (average growth, OD 620 nm) / 80 mM KCl (average growth, OD 620 nm): average of 4
# Source text: However, the present results could not exclude that the inhibitory effect found for these substances can possibly also be attributed to an inhibition of other proteins which are essential for the growth of yeast cells. […]
# [4] = 30 μM, wild-type cells, DPM -HIS/-TRP, 0.5 mM CsCl, 24 hours growth, TROPIX kit, ASSAY 1
# [5] = 30 μM, wild-type cells, DPM -HIS/-TRP, 0.5 mM CsCl, 24 hours growth, TROPIX kit, ASSAY 1, mean of 4
# [6] = 30 μM, wild-type cells, DPM -HIS/-TRP, 0.5 mM CsCl, 24 hours growth, TROPIX kit, ASSAY 2
# [7] = 30 μM, wild-type cells, DPM -HIS/-TRP, 0.5 mM CsCl, 24 hours growth, TROPIX kit, ASSAY 2, mean of 4
SMILES,"Exp. 1 (LacZ luminescence), ASSAY 1 [1, 4]","Exp. 2 (LacZ luminescence), ASSAY 1 [1, 4]","Exp. 3 (LacZ luminescence), ASSAY 1 [1, 4]","Exp. 4 (LacZ luminescence), ASSAY 1 [1, 4]","Mean growth (LacZ luminescence), ASSAY 1 [1, 5]","Exp. 1 (LacZ luminescence), ASSAY 2 [1, 6]","Exp. 2 (LacZ luminescence), ASSAY 2 [1, 6]","Exp. 3 (LacZ luminescence), ASSAY 2 [1, 6]","Exp. 4 (LacZ luminescence), ASSAY 2 [1, 6]","Mean growth (LacZ luminescence), ASSAY 2 [1, 7]","Exp. 1 (growth, OD620 nm) [2]","Exp. 2 (growth, OD620 nm) [2]","Exp. 3 (growth, OD620 nm) [2]","Exp. 4 (growth, OD620 nm) [2]",Mean growth (OD620 nm) [2],complementation of the growth deficiency of the triple mutant by human HERG1 in the presence of the substance [2],toxic effect on yeast cells (Saccharomyces cerevisiae) ([3]; FIG. 10),"growth OD 620 nm, 5 mM KCl, measurement 1 [3]","growth OD 620 nm, 5 mM KCl, measurement 2 [3]","growth OD 620 nm, 5 mM KCl, measurement 3 [3]",other results
CN(C)CCOC(c1ccccc1)c1ccccc1 [Diphenhydramine],2806,3161,4178,4884,3757.25,3468,2980,3062,3581,3267.75,–,–,–,–,–,–,–,–,–,–,–
"CCOC(=O)N1CCC(=C2c3ccc(Cl)cc3CCc3cccnc32)CC1 [Loratadine, ethyl 4-(8-chloro-5,6-dihydro-11H-benzo[5,6]cyclohepta[1,2-b]pyridin-11-ylidene)-1-piperidinecarboxytate]",4905,5141,1857,3266,3792.25,3553,1965,3590,2478,2896.5,–,–,–,–,–,–,–,–,–,–,–
"O=c1[nH]c2ccccc2n1C1CCN(CCCC(c2ccc(F)cc2)c2ccc(F)cc2)CC1 [Pimozide, 1-(4,4-bis(P-fluorophenyl)butyl)-4-(2-oxo-1-benzimidazolinyl)-piperidine]",357.4,747.9,804.6,585.4,623.825,905,2176,496.5,573.4,1037.725,0.004,0.004,0.005,0.005,0.0045,can no longer complement,no generally toxic effect,0.904,0.823,0.305,"growth OD 620 nm, 5 mM KCl, measurement 4 [3]: 0.614; 5 mM KCl (average growth, OD 620 nm) [3]: 0.6615; growth OD 620 nm, 80 mM KCl, measurement 1 ([3]; 80 mM KCl): 3.673; growth OD 620 nm, 80 mM KCl, measurement 2 ([3]; 80 mM KCl): 3.505; growth OD 620 nm, 80 mM KCl, measurement 3 ([3]; 80 mM KCl): 3.46 and 3.48; growth OD 620 nm, 80 mM KCl, measurement 4 ([3]; 80 mM KCl): 3.441; 80 mM KCl (average growth, OD 620 nm) ([3]; 80 mM KCl): 3.5 and 3.52"
"O=C1NCCN1CCN1CCC(c2cn(-c3ccc(F)cc3)c3ccc(Cl)cc23)CC1 [Sertindole, 1-(2-[4-[5-chloro-1-(4-fluorophenyl)-1H-indol-3-yl]-1-piperidinyl]ethyl)-2-imidazolidinone]",4165,2099,4588,3069,3480.25,3992,3076,3972,2782,3455.5,–,–,–,–,–,–,–,–,–,–,specificity of inhibition of the human HERG1 channel (comparison with wild-type strain) [1]: specific inhibitors
"CC(C)(C)c1ccc(C(O)CCCN2CCC(C(O)(c3ccccc3)c3ccccc3)CC2)cc1 (stereo not drawn) [Terfenadine, α-(4-tert-butylphenyl)-4-(α-hydroxy-αphenylbenzyl)-1-piperidinebutanol]",–,–,–,–,–,–,–,–,–,–,–,–,–,–,–,–,–,–,–,–,"Exp. 1 (LacZ luminescence), ASSAY 1 [1]: 4497; Exp. 1 (LacZ luminescence), ASSAY 2 [1]: 3439; Exp. 2 (LacZ luminescence), ASSAY 1 [1]: 4481; Exp. 2 (LacZ luminescence), ASSAY 2 [1]: 3795; Exp. 3 (LacZ luminescence), ASSAY 1 [1]: 5058; Exp. 3 (LacZ luminescence), ASSAY 2 [1]: 3698; Exp. 4 (LacZ luminescence), ASSAY 1 [1]: 5381; Exp. 4 (LacZ luminescence), ASSAY 2 [1]: 3388; Mean growth (LacZ luminescence), ASSAY 1 [1]: 4854.25; Mean growth (LacZ luminescence), ASSAY 2 [1]: 3580"
"O=C1Cc2cc(CCN3CCN(c4nsc5ccccc45)CC3)c(Cl)cc2N1 [Ziprasidone, 5-(2-[4-(1,2-benzisothiazol-3-yl)piperazino]-ethyl)-6-chloro-1,3-dihydro-2H-indol-2-one]",55.32,70.29,70.3,77.18,68.2725,62.52,44.3,49.71,51.87,52.1,0.006,0.01,0.012,0.015,0.01075,can no longer complement,has a toxic effect,0.943,0.877,0.675,"specificity of inhibition of the human HERG1 channel (comparison with wild-type strain) [1]: rather unspecific inhibitors; effect on growth of yeast cells at higher potassium concentrations ([3]; 80 mM KCl, FIG. 10): inhibits the growth; growth OD 620 nm, 5 mM KCl, measurement 4 [3]: 0.701; 5 mM KCl (average growth, OD 620 nm) [3]: 0.799; growth OD 620 nm, 80 mM KCl, measurement 1 ([3]; 80 mM KCl): 0.836; growth OD 620 nm, 80 mM KCl, measurement 2 ([3]; 80 mM KCl): 0.681; growth OD 620 nm, 80 mM KCl, measurement 3 ([3]; 80 mM KCl): 0.717; growth OD 620 nm, 80 mM KCl, measurement 4 ([3]; 80 mM KCl): 0.606; 80 mM KCl (average growth, OD 620 nm) ([3]; 80 mM KCl): 0.7 and 0.71"

# From US20100167275A1, “Potassium channel mutants of the yeast Saccharomyces cerevisiae and their use for screening eukaryotic potassium channels” (sanofi-aventis Deutschland GmbH, priority 2000, published 2010)
